Where “and” joins values, the source holds several entries; their conditions need not be identical. Equal entries are not always repeated.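 How tested: cells in 96-well plates exposed to compound for 48 hours at five concentrations. GI50 marks 50% less growth. TGI denotes the concentration required for complete inhibition of growth.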
Columns and labels:
Assay in all cases: NCI-60 cell line screen, 48 h
NCI-H226 lung = test system: NCI-H226 lung
MOLT-4 leukemia = test system: MOLT-4 leukemia
SK-MEL-5 melanoma = test system: SK-MEL-5 melanoma
SNB-75 CNS = test system: SNB-75 CNS
OVCAR-5 ovarian = test system: OVCAR-5 ovarian
HT29 colon = test system: HT29 colon
OVCAR-3 ovarian = test system: OVCAR-3 ovarian
HCC-2998 colon = test system: HCC-2998 colon
SNB-19 CNS = test system: SNB-19 CNS
SN12C renal = test system: SN12C renal

SMILES	GI50 (NCI-H226 lung)	TGI (NCI-H226 lung)	GI50 (MOLT-4 leukemia)	TGI (MOLT-4 leukemia)	GI50 (SK-MEL-5 melanoma)	TGI (SK-MEL-5 melanoma)	GI50 (SNB-75 CNS)	TGI (SNB-75 CNS)	GI50 (OVCAR-5 ovarian)	TGI (OVCAR-5 ovarian)	GI50 (HT29 colon)	TGI (HT29 colon)	GI50 (OVCAR-3 ovarian)	TGI (OVCAR-3 ovarian)	GI50 (HCC-2998 colon)	TGI (HCC-2998 colon)	GI50 (SNB-19 CNS)	TGI (SNB-19 CNS)	GI50 (SN12C renal)	TGI (SN12C renal)
Cc1cc(C(C#N)c2ccc(Cl)cc2)c(Cl)cc1NC(=O)c1cc(I)cc(I)c1O (stereo not given)	11.9 µM	43.4 µM	4.74 µM and 22.6 µM	19.3 µM and 53.9 µM	3.09 µM and 14.2 µM	11 µM and 27.3 µM	12.3 µM and 6.96 µM	41.5 µM and 25.6 µM	11 µM and 15.5 µM	29.2 µM and 32 µM	7.23 µM and 18.6 µM	22.6 µM and 40.4 µM	8.33 µM and 14.2 µM	23.5 µM and 28.5 µM	4.08 µM and 10.8 µM	15.4 µM and 24 µM	5.97 µM and 10.4 µM	27.1 µM and 27.5 µM	3.57 µM and 15.4 µM	35.6 µM and 39.2 µM
Cc1cc(=O)oc2cc3c(cc12)Oc1ccccc1O3	–	> 100 µM	–	> 100 µM	–	> 100 µM	–	59.9 µM	–	> 100 µM	–	> 100 µM	–	> 100 µM	–	> 10 µM	–	> 100 µM	–	> 100 µM
Cc1nc2sc(C(=O)Nc3ccccc3)c(N)c2cc1C(=O)/C=C/c1ccccc1	2.04 µM	4.6 µM	2.91 µM	76.1 µM	2.27 µM	5.98 µM	2.18 µM	6.12 µM	2.31 µM	7.13 µM	1.77 µM	3.95 µM	1.9 µM	4.14 µM	1.77 µM	3.28 µM	1.89 µM	4.17 µM	2.02 µM	4.45 µM
CCCCCCCCCCCCCCCC(=O)OCC1OC(n2c(O)c(N=NC(N)=S)c3ccc([N+](=O)[O-])cc32)C(OC(C)=O)C1OC(C)=O (stereo not given)	–	> 100 µM	–	> 100 µM	–	> 100 µM	–	> 100 µM	–	> 100 µM	–	> 100 µM	–	> 100 µM	–	> 100 µM	–	> 100 µM	–	> 100 µM
COc1ccc2c(c1)OC(N(C(C)=O)C(C)=O)=C(C#N)C2c1ccc(F)cc1 (stereo not given)	25.5 µM	> 100 µM	2.66 µM	> 100 µM	1.98 µM	18.3 µM	1.28 µM	> 100 µM	7.65 µM	> 100 µM	2.55 µM	18 µM	0.676 µM	7.5 µM	4.93 µM	> 100 µM	2.91 µM	> 100 µM	6.48 µM	> 100 µM
CC(=O)Nc1ccc2c(c1)oc(=O)c1cc(NC(C)=O)ccc12	> 100 µM	> 100 µM	18.9 µM	> 100 µM	96.5 µM	> 100 µM	> 100 µM	> 100 µM	> 100 µM	> 100 µM	54 µM	> 100 µM	> 100 µM	> 100 µM	52.4 µM	> 100 µM	> 100 µM	> 100 µM	29.6 µM	> 100 µM
Oc1ccc(CCCCCCc2ccc(O)cc2)cc1	15.7 µM	32.9 µM	0.566 µM	27.9 µM	5.27 µM	17.1 µM	11.6 µM	35.3 µM	16.9 µM	31.4 µM	17 µM	34.5 µM	6.02 µM	17.8 µM	11 µM	23.2 µM	12.6 µM	25.5 µM	9.22 µM	24.3 µM
C[C@@H]1CN(CC(=O)N2CC(C)(C)c3nc(CO)c(Cc4ccc(F)cc4)cc32)[C@@H](CN2CCOC[C@H]2C)CN1	> 100 µM	> 100 µM	24.4 µM	77.9 µM	15 µM	28.3 µM	19.7 µM	> 100 µM	> 100 µM	> 100 µM	22.2 µM	49.2 µM	> 100 µM	> 100 µM	17.1 µM	32.4 µM	> 100 µM	> 100 µM	78.2 µM	> 100 µM
O=C1C2=C(c3ccccc31)C(c1ccccc1)NC(=S)N2 (stereo not given)	–	> 100 µM	–	> 100 µM	–	> 100 µM	–	80 µM	–	> 100 µM	–	> 100 µM	–	> 100 µM	–	> 100 µM	–	> 100 µM	–	> 100 µM
COc1ccc(NC(=O)c2cc(OC)c(OC)c(OC)c2)cc1	–	> 100 µM	–	> 100 µM	–	> 80.6 µM	–	> 100 µM	–	> 100 µM	–	> 100 µM	–	> 100 µM	–	> 100 µM	–	> 100 µM	–	> 100 µM
O=C(CN1CCN(c2ccccc2)CC1)N1CCc2c([nH]c3ccccc23)C1c1cccnc1 (stereo not given)	–	> 100 µM	–	> 100 µM	–	> 100 µM	–	23.4 µM	–	> 100 µM	–	> 100 µM	–	> 100 µM	–	> 100 µM	–	> 100 µM	–	> 100 µM
CC(C)CC1=[N+]=C(NC#N)N=C(CCC(=O)Nc2ccccc2[N+](=O)[O-])C1	–	> 100 µM	–	> 100 µM	–	> 100 µM	–	> 100 µM	–	> 100 µM	–	> 100 µM	–	> 100 µM	–	> 100 µM	–	> 100 µM	–	> 100 µM
CCCCCCCCCCCCCC(=O)CBr	–	35.1 µM	–	2.9 µM	–	26.3 µM	–	16 µM	–	49.8 µM	–	30.5 µM	–	39.9 µM	–	32.1 µM	–	33.7 µM	–	43.3 µM

— PubChem BioAssay (NCI)
